Activity calls are given as the source filed them. The calls are words filed in the database; no cut-off is given here.
What was measured:
[1] = Cytotoxicity against human HMC1 cells at 50 uM after 72 hrs; type: cell-based; details: hmc1, 72 h
HMC1 [2] = assay: Antiallergic activity in human HMC1 cells assessed as inhibition of IgE […] receptor expression after 72 hrs by flow cytometry; type: functional, cell-based
HMC1 [3] = assay: Antiallergic activity in human HMC1 cells assessed as inhibition of IgE […] receptor mRNA expression after 72 hrs by RT-PCR; type: functional, cell-based

SMILES: COc1cc2occ(-c3ccc(O)cc3)c(=O)c2cc1OC
- Activity [1]: Non-toxic
- inhibition (HMC1 [2]): Active

SMILES: COc1c(O)cc2occ(-c3ccc(O)cc3)c(=O)c2c1O
- inhibition (HMC1 [3]): Active

From ChEMBL document CHEMBL1177789, “Inhibitors for expression of IgE receptor on human mast cell from Puerariae Flos” (Bioorg Med Chem Lett, 2010)
